{"source": "patent US20100113517A1", "about": "“METHOD FOR THE TREATMENT OF FABRY DISEASE USING PHARMACOLOGICAL CHAPERONES” (AMICUS THERAPEUTICS, INC., priority 2007, published 2010)", "key": {"[1]": {"assay": "Phase I ascending single oral dose study, safety and tolerability", "format": "in vivo, healthy volunteers (human)", "conditions": "healthy male subjects, single doses 25 mg through 675 mg", "method": "Study Design and Duration. […] Dose escalation to the next dose level (i.e., next group) proceeded following review of safety and tolerability of the previous group(s). Subjects were housed in the treatment facility from 14 hours prior to dosing until 24 hours after dosing. Meals were controlled by schedule and subjects remained abulatory for 4 hours post drug administration.\n(§1) Safety and Tolerability Assessments.\nStatistical Analysis. Safety data including laboratory evaluations, physical exams, adverse events, ECG monitoring and vital signs assessments were summarized by treatment group and point of time of collection. Descriptive statistics (arithmetic mean, standard deviation, median, minimum and maximum) were calculated for quantitative safety data as well as for the difference to baseline. Frequency counts were compiled for classification of qualitative safety data. In addition, a shift table describing out of normal range shifts was provided for clinical laboratory results. A normal-abnormal shift table was also be presented for physical exam results and ECGs.\nConcomitant medications and medical history were listed by treatment."}, "[2]": {"assay": "Phase Ib twice daily oral dose study, pharmacokinetics", "format": "in vivo, healthy volunteers (human)", "conditions": "for half-life: read-out: t½ (converted)", "method": "(§2) Study Design and Duration. […] Subjects were housed in the treatment facility from 14 hours prior to dosing until 24 hours after dosing. Meals were controlled by schedule and subjects remained abulatory for 4 hours post drug administration\nPharmacokinetic Sampling. Blood samples (10 mL each) were collected in blood collection tubes containing EDTA before dosing and at the following times thereafter: 0.25, 0.5, 0.75, 1, 1.5, 2, 3, 4, 5, 6, 7, 8, 9, 10, 11 and 12 hours. Blood samples were cooled in an ice bath and centrifuged under refrigeration as soon as possible. Plasma samples were divided into two aliquots and stored at […] pending assay. At the end of the study, all samples were transferred to MDS Pharma Services Analytical Laboratories (Lincoln) for analysis.\nPharmacokinetic parameters were summarised by treatment group using descriptive statistics (arithmetic means, standard deviations, coefficients of variation, sample size, minimum, maximum and median)."}, "[3]": {"assay": "Phase Ib twice daily oral dose study, safety and tolerability", "format": "in vivo, healthy volunteers (human)", "method": "as §2, §1\nWBC α-GAL A Enzymatic Activity Sampling. Blood samples (10 mL each) were collected in blood collection tubes containing EDTA and WBC extracted before dosing and at the following times thereafter: 100 hours, 150 hours, and 336 hours. Samples were treated as described above, and WBC α-Gal A enzymatic activity levels were determined as described in Desnick, R. J. (ed) Enzyme therapy in genetic diseases. Vol 2. Alan R Liss, New York, pp 17-32. Statistical Analysis. Safety data including laboratory evaluations, physical exams, adverse events, ECG monitoring and vital signs assessments were summarized by treatment group and point of time of collection. Descriptive statistics (arithmetic mean, standard deviation, median, minimum and maximum) were calculated for quantitative safety data as well as for the difference to baseline. Frequency counts were compiled for classification of qualitative safety data. In addition, a shift table describing out of normal range shifts was provided for clinical laboratory results. A normal-abnormal shift table was also presented for physical exam results and ECGs. […]"}, "[4]": {"target": "T1, α-Gal A (Homo sapiens, UniProt P06280)", "T1 construct": "α-Gal A activity was calculated in white blood cells (WBC) before dosing began; endogenous in cells; host or cells: white blood cells of healthy human volunteers", "T1 sequence (P06280 32-429)": "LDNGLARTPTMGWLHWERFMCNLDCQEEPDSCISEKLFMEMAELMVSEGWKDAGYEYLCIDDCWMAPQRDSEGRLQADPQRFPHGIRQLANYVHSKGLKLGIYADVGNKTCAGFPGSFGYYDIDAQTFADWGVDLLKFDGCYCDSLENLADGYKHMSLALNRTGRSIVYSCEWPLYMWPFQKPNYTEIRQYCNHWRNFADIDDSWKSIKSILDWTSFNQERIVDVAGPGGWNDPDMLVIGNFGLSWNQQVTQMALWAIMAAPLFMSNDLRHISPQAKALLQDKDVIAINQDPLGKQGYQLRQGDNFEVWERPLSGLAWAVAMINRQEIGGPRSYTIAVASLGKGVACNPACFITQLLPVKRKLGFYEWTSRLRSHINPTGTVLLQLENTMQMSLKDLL", "assay": "Phase Ib WBC α-Gal A enzymatic activity", "format": "in vivo, healthy volunteers (human)", "method": "WBC α-GAL A Enzymatic Activity Sampling. Blood samples (10 mL each) were collected in blood collection tubes containing EDTA and WBC extracted before dosing and at the following times thereafter: 100 hours, 150 hours, and 336 hours. Samples were treated as described above, and WBC α-Gal A enzymatic activity levels were determined as described in Desnick, R. J. (ed) Enzyme therapy in genetic diseases. Vol 2. Alan R Liss, New York, pp 17-32. Statistical Analysis. Safety data including laboratory evaluations, physical exams, adverse events, ECG monitoring and vital signs assessments were summarized by treatment group and point of time of collection. Descriptive statistics (arithmetic mean, standard deviation, median, minimum and maximum) were calculated for quantitative safety data as well as for the difference to baseline. Frequency counts were compiled for classification of qualitative safety data. In addition, a shift table describing out of normal range shifts was provided for clinical laboratory results. A normal-abnormal shift table was also presented for physical exam results and ECGs."}, "[5]": {"tested_on": "α-Gal A", "assay": "Phase II study in Fabry patients, α-Gal A activity in white blood cells", "format": "in vivo, Fabry patients (human)", "method": "Study Design. A two-arm design was planned. […] In the second arm, escalating doses of 25, 100, and then 250 mg b.i.d. over 6 weeks, followed by 50 mg/day for the remainder of the study.\nα-Gal A activity. In addition, α-Gal A activity will be assessed in fractionated tissue obtained from biopsies and in blood leukocytes and plasma (from blood collected at baseline and every month).\nα-Gal A Activity. […] Eight patients in the study received an acending dose of 25, 100, and then 250 mg b.i.d. over 6 weeks, followed by 50 mg/day for the remainder of the study (represented on FIG. 2 by closed circles). For purposes of calculating the percentage of normal in the table, the level of α-GAL that is normal was derived by using the average of the levels of α-GAL in white blood cells of 15 healthy volunteers from the multiple-dose Phase I study."}, "[6]": {"tested_on": "α-Gal A", "assay": "Plasma concentration at which enzyme activity enhancement is seen (clinical and preclinical studies)", "format": "in vivo", "conditions": "clinical studies and preclinical studies in mice"}, "[7]": {"tested_on": "mutant α-Gal A (R301Q or Q279E)", "conditions": "lymphoblasts from Fabry patients with R301Q or Q279E mutations; cited from earlier work"}, "[8]": {"conditions": "human, plasma, oral, 50 mg, 50 mg bid, Day 1"}, "[9]": {"conditions": "human, plasma, oral, 50 mg, 50 mg bid, Day 7"}, "[10]": {"conditions": "human, plasma, oral, 150 mg, 150 mg bid, Day 1"}, "[11]": {"conditions": "human, plasma, oral, 150 mg, 150 mg bid, Day 7"}}, "note": "“And” between values parts separate entries of the source, which are not always exact repeats. Equal values may be shown once. Read-outs that look alike come from different tables or passages of the source."}
{"smiles": "OCC1NCC(O)C(O)C1O", "note": "(centres unmarked) [DGJ, 1-deoxygalactonojirimycin]", "values": [{"measurement": "safety and tolerability", "setting": "[1]", "value": "safe and well tolerated"}, {"measurement": "12 h cumulative renal excretion", "setting": "[2]; 50 mg bid, Day 1", "value": "16% and 16 ± 6%"}, {"measurement": "12 h cumulative renal excretion", "setting": "[2]; 50 mg bid, Day 7", "value": "48% and 48 ± 7%"}, {"measurement": "Cmin", "setting": "[2]; 50 mg bid, Day 7", "value": "0.4 ± 0.03", "unit": "µM"}, {"measurement": "12 h cumulative renal excretion", "setting": "[2]; 150 mg bid, Day 1", "value": "42% and 42 ± 7%"}, {"measurement": "12 h cumulative renal excretion", "setting": "[2]; 150 mg bid, Day 7", "value": "60% and 60 ± 5%"}, {"measurement": "Cmin", "setting": "[2]; 150 mg bid, Day 7", "value": "1.2 ± 0.1", "unit": "µM"}, {"measurement": "time of peak concentrations, on average", "setting": "[2]; all dose levels (50 and 150 mg b.i.d.)", "value": "approximately 3 hours"}, {"measurement": "increase of Cmax with dose", "setting": "[2]; doses increased from 50 mg to 150 mg", "value": "dose-proportional manner"}, {"measurement": "concentration at 7 day", "setting": "[2]; human, plasma, oral, 50 mg b.i.d., Day 7, read-out: Cmin", "value": 0.4, "unit": "µM"}, {"measurement": "Cmax", "setting": "[2]; [8]", "value": "2.3 ± 0.3", "unit": "µM"}, {"measurement": "Tmax", "setting": "[2]; [8]", "value": "2.9 ± 0.4", "unit": "h"}, {"measurement": "Cmax", "setting": "[2]; [9]", "value": "3.9 ± 0.5", "unit": "µM"}, {"measurement": "Tmax", "setting": "[2]; [9]", "value": "2.5 ± 0.4", "unit": "h"}, {"measurement": "Cmax", "setting": "[2]; [10]", "value": "11.3 ± 1.5", "unit": "µM"}, {"measurement": "Tmax", "setting": "[2]; [10]", "value": "3.1 ± 0.4", "unit": "h"}, {"measurement": "Cmax", "setting": "[2]; [11]", "value": "10.8 ± 1.4", "unit": "µM"}, {"measurement": "Tmax", "setting": "[2]; [11]", "value": "2.9 ± 0.4", "unit": "h"}, {"measurement": "half-life", "setting": "[2]; human, plasma, oral, 50 mg bid, Day 1", "value": 2.5, "unit": "h"}, {"measurement": "half-life", "setting": "[2]; human, plasma, oral, 150 mg bid, Day 1", "value": 2.4, "unit": "h"}, {"measurement": "adverse events (AEs)", "setting": "[3]; after 50 mg b.i.d. or 150 mg b.i.d.", "value": "no subject presented with AEs"}, {"measurement": "safety and tolerability", "setting": "[3]; healthy male subjects, 50 mg b.i.d. and 150 mg b.i.d., seven days", "value": "safe and well tolerated"}, {"measurement": "inhibition of WBC α-Gal A enzymatic activity", "setting": "[4]; 50 mg b.i.d. or 150 mg b.i.d.", "value": "did not inhibit"}, {"measurement": "WBC α-Gal A enzymatic activity", "setting": "[4]; 50 mg b.i.d., 100 hours", "value": 120, "unit": "% pre-dose levels"}, {"measurement": "WBC α-Gal A enzymatic activity", "setting": "[4]; 50 mg b.i.d., 150 hours", "value": 130, "unit": "% pre-dose levels"}, {"measurement": "WBC α-Gal A enzymatic activity", "setting": "[4]; 50 mg b.i.d., 336 hours", "value": 145, "unit": "% pre-dose levels"}, {"measurement": "WBC α-Gal A enzymatic activity", "setting": "[4]; 150 mg b.i.d., 100 hours", "value": 150, "unit": "% pre-dose levels"}, {"measurement": "WBC α-Gal A enzymatic activity", "setting": "[4]; 150 mg b.i.d., 150 hours", "value": 185, "unit": "% pre-dose levels"}, {"measurement": "WBC α-Gal A enzymatic activity", "setting": "[4]; 150 mg b.i.d., 336 hours", "value": 185, "unit": "% pre-dose levels"}, {"measurement": "enzyme activity at the lowest dose evaluated", "setting": "[5]; 25 mg b.i.d., Fabry patients", "value": "increased enzyme activity"}, {"measurement": "restoration of α-Gal A activity levels by titration", "setting": "[5]; as measured in white blood cells", "value": "to the normal range"}, {"measurement": "enzyme activity after dose reduction", "setting": "[5]; dose reduced after 6 weeks to 50 mg/day", "value": "remains elevated"}, {"measurement": "patients with an increase in the activity of the enzyme deficient in Fabry disease", "setting": "[5]; first eleven patients treated for at least 12 weeks, white blood cells", "value": "10 of the 11"}, {"measurement": "plasma concentration at which the pharmacological effect (enzyme activity enhancement) is seen", "setting": "[6]", "value": "approximately 0.4 μM"}, {"measurement": "enhancement of mutant enzyme activity", "setting": "[7]", "value": "≥ 45", "unit": "%"}]}
